Results published in PMC10541456, “A phase I, single‐center, open‐label study to investigate the absorption, distribution, metabolism and excretion of encorafenib following a single oral dose of 100 mg [ ^14C] encorafenib in healthy male subjects” (Pharmacology Research & Perspectives, 2023).
Several values for one entry are separate records, joined by “and”; a condition that tells them apart may be missing. Identical values can stand only once.

Experiments:
[1] = Stability in simulated gastric and intestinal fluid; format: in vitro ADME; details: 37°C, relative to time = 0 h
Protocol: Simulated gastric fluid (SGF) was generated by mixing 2.0 g of sodium chloride and 3.2 g of purified pepsin, which is derived from porcine stomach mucosa, with an activity of 800 to 2500 units per mg of protein, in 7.0 mL of hydrochloric acid and sufficient water to make 1000 mL. The final test solution has a pH of about 1.2. Simulated intestinal fluid (SIF) was generated by dissolving 6.8 g of monobasic potassium phosphate in 250 mL of water and adding 77 mL of 0.2 N sodium hydroxide and 500 mL of water. To this mixture, 10.0 g of pancreatin was added and the solution pH was adjusted with either 0.2 N sodium hydroxide or 0.2 N hydrochloric acid to a pH of 6.8 ± 0.1 and diluted with water to a final volume of 1000 mL. Encorafenib was dissolved in SGF (100 μM final encorafenib concentration) and incubated for 1 h or SIF (1 μM final encorafenib concentration) for 3 h. Dilutions are prepared in HPLC vials by combining 20 μL of the test compound in DMSO with 180 μL of the specified assay media. Separate dilutions are prepared for each time point per media. The media is mixed by repeated pipetting, vortexed and incubated at 37°C. At the specified time period and equal volume of cold ACN is added to the vial to precipitate the protein and quench any enzymatic activity. […] Stability is calculated as % remaining relative to the T = 0 peak area.

[2] = design: method as in earlier work; details: cited from earlier work
[3] = design: method as in data on file; details: in vitro study; ref data on file; cited from earlier work
[4] = Mass balance: excretion of radioactivity in urine and feces (LSC); format: in vivo, human
Protocol: This study (ClinicalTrials.gov ID, NCT01436656) was a single‐center, open‐label study to investigate the ADME of encorafenib after a single oral administration of 100 mg (90 μCi) [^14C] encorafenib in healthy male subjects. A total of four evaluable subjects were enrolled and dosed. The study consisted of a screening period, a baseline period, a single dose treatment and a 96 h post‐dose observation period. A safety follow‐up assessment by phone was conducted 30 days after administration of 100 mg (90 μCi) [^14C] encorafenib. Subjects completed an overnight fast of at least 10 h prior to administration of the study drug. Subjects were discharged from the clinical site provided that the subject's recovery of [^14C] encorafenib‐related radioactivity was at least 90% of the administered dose. The study duration period could be prolonged if the subject's recovery of related radioactivity was less than 90% by the fifth‐day post‐treatment or the subject had two consecutive 24‐h combined urine and fecal collections yielding ≥1% of dose.
Venous blood samples (18 mL/time point) were collected by either direct venipuncture or from an indwelling cannula inserted into a vein of the forearm into tubes containing potassium ethylene diamine tetra acetic acid (K2‐EDTA) at the following times for metabolite characterization, total radioactivity and parent drug analysis: Pre‐dose, 0.5, 1, 1.5, 2, 3, 4, 6, 8, 12, 24, 48, 72, 96, 120 and 144 h post‐dose. Urine samples were collected into pre‐weighed, uniquely labeled containers pre‐dose (before drug administration) and at the following intervals: 0–4, 4–8, 8–24, 24–48, 48–72, 72–96, 96–120 and 120–144 h post‐dose. Feces samples were collected quantitatively into uniquely labeled, polypropylene containers pre‐dose (before drug administration) and individually until 144 h post‐dose. Urine and feces samples were frozen at −20°C and blood samples at −70°C.
Analysis of total radioactivity data in plasma, blood, feces, and urine was performed by Covance Laboratories Inc. All sample combustions were performed in a Model 307 Sample Oxidizer (Packard Instrument Company) and the resulting ^14CO2 was trapped in a mixture of Perma Fluor™ (Perkin Elmer) and Carbo Sorb® (Perkin Elmer). Oxidation efficiency was evaluated on each day of sample combustion by analyzing a commercial radiolabeled standard both directly in a scintillation cocktail and by oxidation. […] EcoLite™(+) scintillation cocktail was used for samples analyzed directly. All samples were analyzed for radioactivity in Model 2900TR or 2910TR liquid scintillation counters (Packard Instrument Company) for at least 5 min or 100 000 counts. […] All samples were analyzed in duplicate or triplicate, as applicable, if sample size allowed. If results from sample replicates (calculated as ^14C disintegrations per minute (dpm)/g sample) differed by more than 10% from the mean value and sample aliquots had radioactivity greater than 200 dpm, the sample was re‐homogenized or remixed and reanalyzed (if the sample size permitted).
Blood samples were mixed and duplicate aliquots of each (approximately 0.4 g) were combusted and analyzed by liquid scintillation […]. Plasma and urine samples were separately mixed and duplicate weighed aliquots of each (approximately 0.4 g for plasma and 0.2 g for urine) were analyzed directly by LSC. […] Feces samples were analyzed individually (samples were not combined by interval) and the weight of each individual sample was recorded. […]

[5] = mean, through last collection interval (144 h)

Percentage remaining in SIF with pancreatin ([1]; 3-h incubation, 1 μM, pH 6.8): approximately 97%
Percentage remaining in SGF with pepsin ([1]; 1 h incubation, 100 μM, pH about 1.2): approximately 101%
Fraction of oral absorption (Fa) ([4]; estimated from urine radioactivity plus fecal metabolites, assumes stability in feces and GI tract): ≥ 86%
Mass balance (total radioactivity recovered) ([4]; mean ± SD of four subjects, by end of Day 6 (144 h post-dose)): 94.5 ± 0.63 % dose
Radioactivity recovered in feces [4, 5]: 47.2 % of the dose
Radioactivity recovered in urine [4, 5]: 47.2 % of the dose and 47 % of the dose
Overall recovery of radioactivity in the excreta, in all four subjects ([4]; single oral 100 mg [14C] encorafenib, urine + feces, bound holding for each subject): ≥ 93.9% and > 90%
Compound: COC(=O)N[C@@H](C)CNc1nccc(-c2cn(C(C)C)nc2-c2cc(Cl)cc(NS(C)(=O)=O)c2F)n1 [encorafenib]
Dose proportionality of systemic exposure ([2]; after a single dose, dose range 50 mg to 700 mg): dose‐proportional
Variability of apparent oral clearance, encorafenib labeling [2]: 54%
[blood]/[plasma] in vitro [3]: 0.75 ± 0.21
